Measured values as given in patent US12708607B2, “Thromboxane receptor antagonist formulations” (ATXA THERAPEUTICS LIMITED, priority 2020, dated 2026).
Read-outs that look alike come from different tables or passages of the source.

Key:
[1] = test system: TP (thromboxane A2 receptor); assay: whole blood platelet aggregation ex vivo after oral dosing, U46619-induced; format: in vivo, cynomolgus monkey; conditions: 100 mg/kg BID oral, Day 14; 1 μM U46619
Method: (§1) Whole blood platelet aggregation assays were performed ex vivo in blood samples taken from the NHPs (n=3) administered 100 mg/kg NTP42:KVA4, BID (200 mg/kg/day) for 14 days. In this type of platelet aggregation assay, a reduction in platelet numbers is indicative of platelet aggregation. Blood was collected prior to (pre-dose), and at 45 min- and 24 h-following the first daily dose, and platelet numbers determined in blood samples at baseline (untreated), and in blood samples incubated with drug vehicle, the thromboxane mimetic, U46619 or, as control, other platelet agonists (e.g., ADP, collagen, thrombin, ristocetin, epinephrine). Baseline platelet counts ranged from 120-190×10^3 platelets/μl.
(§2) Whole blood platelet aggregation assays were performed ex vivo in blood samples taken from the NHPs (n=3) administered 100 mg/kg NTP42:KVA4, BID (200 mg/kg/day) for 14 days. Blood was collected prior to (pre-dose), and at 45 min- and 24 h-following the first daily dose, and platelet numbers determined in blood samples at baseline (untreated), and in blood samples incubated with drug vehicle, the thromboxane mimetic, U46619 or, as control, 50 μM ADP. In this assay, a reduction in platelet numbers is indicative of platelet aggregation.

[2] = test system: platelet aggregation induced by other platelet agonists; assay: whole blood platelet aggregation ex vivo after oral dosing, other platelet agonists (e.g. 50 μM ADP); format: in vivo, cynomolgus monkey; conditions: 100 mg/kg BID oral, Day 14
Method: as §1, §2

[3] = NTP42 levels in NHP plasma after repeat oral dosing; format: in vivo, cynomolgus monkey; conditions: for Cmax at 14 days: cynomolgus monkey, plasma, oral, 14 days repeat dosing of NTP42:KVA4 at 200 mg/kg/day
MCT-induced PAH = conditions: Mulvaney et al. 2020; cited from earlier work
Su/Hx-induced PAH = conditions: Mulvaney et al. 2020; cited from earlier work

CC(C)(C)NC(=O)NS(=O)(=O)c1cc(C#N)ccc1Oc1cccc(-c2ccc(OC(F)F)cc2)c1 [NTP42]
TXA2 (U46619)-induced / TP-mediated platelet aggregation ex vivo [1]: selectively inhibited | aggregation induced by other platelet agonists [2]: did not affect | NTP42 levels in NHP plasma 24 h post-dosing ([3]; 24 h post-dosing, 200 mg/kg/day for 14 days): still detectable | Cmax at 14 days ([3]; read-out: Cmax of NTP42 in NHP plasma): 13200 ng/mL | Cmax at 14 days ([3]; read-out: Cmax of NTP42 in NHP plasma, molar equivalent): 25 µM | NTP42 in NHP plasma prior to the first daily dose ([3]; pre-dose, Day 14): present | efficacy of non-formulated drug in MCT-induced model of PAH (MCT-induced PAH): has shown efficacy | efficacy of non-formulated drug in Su/Hx-induced model of PAH (Su/Hx-induced PAH): has shown efficacy
